Starred links: 1 amine or outer side, 2 acyl side, 3 side chain; linkers in the order of their positions; H or OH if unused. Non-standard residues stand in square brackets, D forms with d. Residues, ends and D or L forms follow the SMILES beside them. Groups on a side chain read outwards from the residue. *: point of attachment. C18 diacid = O=C(O)CCCCCCCCCCCCCCCCC(=O)*; γGlu = O=C(O)[C@H](CCC(=O)[*:2])N[*:1]; Ac4c = NC1(C(=O)O)CCC1; AEEA = NCCOCCOCC(=O)O; Aib = CC(C)(N)C(=O)O
target: T1, human GLP-1 receptor (Homo sapiens, UniProt P43220); experiment: Assay (II)(a) GLP-1 receptor binding, 125I-GLP-1 displacement SPA on BHK membranes; conditions: without presence of serum albumin; read-out: GLP-1R IC50 (nM) [Assay (II)(a)]
T1 construct: expressed in transfected cells; host or cells: membranes of BHK cells (parent BHKTS13), clone FCW467-12A
T1 sequence (P43220 24-463): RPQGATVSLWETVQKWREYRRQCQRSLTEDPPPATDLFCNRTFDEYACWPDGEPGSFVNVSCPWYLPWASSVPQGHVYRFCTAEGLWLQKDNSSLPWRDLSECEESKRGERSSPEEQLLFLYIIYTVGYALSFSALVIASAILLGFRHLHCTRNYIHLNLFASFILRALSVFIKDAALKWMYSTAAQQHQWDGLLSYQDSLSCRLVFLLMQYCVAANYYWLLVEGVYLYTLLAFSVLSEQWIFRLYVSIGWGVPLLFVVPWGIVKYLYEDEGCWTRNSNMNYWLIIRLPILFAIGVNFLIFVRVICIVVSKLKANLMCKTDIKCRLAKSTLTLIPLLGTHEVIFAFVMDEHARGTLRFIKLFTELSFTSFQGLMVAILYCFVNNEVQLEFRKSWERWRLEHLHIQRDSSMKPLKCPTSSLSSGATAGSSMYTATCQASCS
Method in brief: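 Membranes from BHK cells (clone FCW467-12A) stably expressing human GLP-1R were incubated with serially diluted compounds (8×10EE-13 to 8×10EE-7 M before addition) and [125I]-GLP-1-(7-36)NH2 with WGA SPA beads, 2 h at 30° C, pH 7.4. IC50 taken from displacement by non-linear regression. Run at ≤0.001% or 2.0% final serum albumin.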

| SMILES | IC50 [nM] |
| --- | --- |
| CC[C@H](C)[C@H](NC(=O)[C@H](CC(C)C)NC(=O)[C@H](Cc1c[nH]c2ccccc12)NC(=O)[C@H](CCC(N)=O)NC(=O)[C@@H](NC(=O)[C@H](Cc1ccccc1)NC(=O)[C@H](CCC(=O)O)NC(=O)[C@H](CCCNC(=N)N)NC(=O)[C@H](C)NC(=O)[C@H](CCCNC(=N)N)NC(=O)[C@H](CCCNC(=N)N)NC(=O)[C@H](CO)NC(=O)[C@H](CCC(=O)O)NC(=O)[C@H](CC(C)C)NC(=O)[C@H](Cc1ccc(O)cc1)NC(=O)[C@H](CCCCN)NC(=O)[C@H](CO)NC(=O)[C@H](CC(C)C)NC(=O)[C@H](CC(=O)O)NC(=O)[C@H](CO)NC(=O)[C@@H](NC(=O)[C@H](Cc1ccccc1)NC(=O)[C@@H](NC(=O)CNC(=O)[C@H](CCC(N)=O)NC(=O)C(C)(C)NC(=O)[C@@H](N)Cc1c[nH]cn1)[C@@H](C)O)[C@@H](C)O)C(C)C)C(=O)N[C@@H](CCCCNC(=O)CC[C@H](NC(=O)CC[C@H](NC(=O)COCCOCCNC(=O)COCCOCCNC(=O)CC[C@H](NC(=O)CC[C@H](NC(=O)CCCCCCCCCCCCCCCCC(=O)O)C(=O)O)C(=O)O)C(=O)O)C(=O)O)C(=O)N[C@H](C(N)=O)[C@@H](C)O [Chem. 25, N^ε28-[(4S)-4-carboxy-4-[[(4S)-4-carboxy-4-[[2-[2-[2-[[2-[2-[2-[[(4S)-4-carboxy-4-[[(4S)-4-carboxy-4-(17-carboxyheptadecanoylamino)butanoyl]amino]butanoyl]amino]ethoxy]ethoxy]acetyl]amino]ethoxy]ethoxy]acetyl]amino]butanoyl]amino]butanoyl]-[Aib2,Leu10,Glu15,Arg20,Glu21,Ile27,Lys28]-Glucagon amide] (H-H[Aib]QGTFTSDLSKYLESRRAREFVQWLIK([γGlu-γGlu-AEEA-AEEA-γGlu-γGlu-C18 diacid])T-NH2; N-terminus assumed) | 0.1 |
| CC[C@H](C)[C@H](NC(=O)[C@H](CC(C)C)NC(=O)[C@H](Cc1c[nH]c2ccccc12)NC(=O)[C@H](C)NC(=O)[C@@H](NC(=O)[C@H](Cc1ccccc1)NC(=O)[C@H](CC(=O)O)NC(=O)[C@H](CCCNC(=N)N)NC(=O)[C@H](C)NC(=O)[C@H](CCCNC(=N)N)NC(=O)[C@H](CCCNC(=N)N)NC(=O)[C@H](CC(C)C)NC(=O)[C@H](CC(=O)O)NC(=O)[C@H](CC(C)C)NC(=O)[C@H](Cc1ccc(O)cc1)NC(=O)[C@H](CCCCN)NC(=O)[C@H](CO)NC(=O)[C@H](CC(C)C)NC(=O)[C@H](CC(=O)O)NC(=O)[C@H](CO)NC(=O)[C@@H](NC(=O)[C@H](Cc1ccccc1)NC(=O)[C@@H](NC(=O)CNC(=O)[C@H](CCC(N)=O)NC(=O)C(C)(C)NC(=O)[C@@H](N)Cc1c[nH]cn1)[C@@H](C)O)[C@@H](C)O)C(C)C)C(=O)N[C@@H](CC(N)=O)C(=O)N[C@@H](CCCCNC(=O)CC[C@H](NC(=O)CC[C@H](NC(=O)COCCOCCNC(=O)COCCOCCNC(=O)CC[C@H](NC(=O)CCCCCCCCCCCCCCCCC(=O)O)C(=O)O)C(=O)O)C(=O)O)C(N)=O [Chem. 24, N^ε29-[(4S)-4-carboxy-4-[[(4S)-4-carboxy-4-[[2-[2-[2-[[2-[2-[2-[[(4S)-4-carboxy-4-(17-carboxyheptadecanoylamino)butanoyl]amino]ethoxy]ethoxy]acetyl]amino]ethoxy]ethoxy]acetyl]amino]butanoyl]amino]butanoyl]-[Aib2,Leu10,Leu16,Arg20,Ala24,Ile27,Lys29]-Glucagon amide] (H-H[Aib]QGTFTSDLSKYLDLRRARDFVAWLINK([γGlu-γGlu-AEEA-AEEA-γGlu-C18 diacid])-NH2; N-terminus assumed) | 0.4 |
| CC[C@H](C)[C@H](NC(=O)[C@H](CC(C)C)NC(=O)[C@H](Cc1c[nH]c2ccccc12)NC(=O)[C@H](CCC(N)=O)NC(=O)[C@@H](NC(=O)[C@H](Cc1ccccc1)NC(=O)[C@H](CCC(=O)O)NC(=O)[C@H](CCC(N)=O)NC(=O)[C@H](C)NC(=O)[C@H](CCCNC(=N)N)NC(=O)[C@H](CCCNC(=N)N)NC(=O)[C@H](CO)NC(=O)[C@H](CCC(=O)O)NC(=O)[C@H](CC(C)C)NC(=O)[C@H](Cc1ccc(O)cc1)NC(=O)[C@H](CCCCN)NC(=O)[C@H](CO)NC(=O)[C@H](CC(C)C)NC(=O)[C@H](CC(=O)O)NC(=O)[C@H](CO)NC(=O)[C@@H](NC(=O)[C@H](Cc1ccccc1)NC(=O)[C@@H](NC(=O)CNC(=O)[C@H](CCC(N)=O)NC(=O)C1(NC(=O)[C@@H](N)Cc2c[nH]cn2)CCC1)[C@@H](C)O)[C@@H](C)O)C(C)C)C(=O)N[C@@H](CCCCNC(=O)CC[C@H](NC(=O)COCCOCCNC(=O)COCCOCCNC(=O)CC[C@H](NC(=O)CC[C@H](NC(=O)CCCCCCCCCCCCCCCCC(=O)O)C(=O)O)C(=O)O)C(=O)O)C(=O)N[C@H](C(N)=O)[C@@H](C)O [Chem. 38, N^ε28-[(4S)-4-carboxy-4-[[2-[2-[2-[[2-[2-[2-[[(4S)-4-carboxy-4-[[(4S)-4-carboxy-4-(17-carboxyheptadecanoylamino)butanoyl]amino]butanoyl]amino]ethoxy]ethoxy]acetyl]amino]ethoxy]ethoxy]acetyl]amino]butanoyl]-[Acb2,Leu10,Glu15,Glu21,Ile27,Lys28]-Glucagon amide] (H-H[Ac4c]QGTFTSDLSKYLESRRAQEFVQWLIK([γGlu-AEEA-AEEA-γGlu-γGlu-C18 diacid])T-NH2; N-terminus assumed) | 0.3 |
| CC[C@H](C)[C@H](NC(=O)[C@H](CC(C)C)NC(=O)[C@H](Cc1c[nH]c2ccccc12)NC(=O)[C@H](CCC(N)=O)NC(=O)[C@@H](NC(=O)[C@H](Cc1ccccc1)NC(=O)[C@H](CC(=O)O)NC(=O)[C@H](CCCNC(=N)N)NC(=O)[C@H](C)NC(=O)[C@H](CCCNC(=N)N)NC(=O)[C@H](CCCNC(=N)N)NC(=O)[C@H](CO)NC(=O)[C@H](CCC(=O)O)NC(=O)[C@H](CC(C)C)NC(=O)[C@H](Cc1ccc(O)cc1)NC(=O)[C@H](CCCNC(=N)N)NC(=O)[C@H](CO)NC(=O)[C@H](Cc1ccc(O)cc1)NC(=O)[C@H](CC(=O)O)NC(=O)[C@H](CO)NC(=O)[C@@H](NC(=O)[C@H](Cc1ccccc1)NC(=O)[C@@H](NC(=O)CNC(=O)[C@H](CCC(N)=O)NC(=O)C(C)(C)NC(=O)[C@@H](N)Cc1c[nH]cn1)[C@@H](C)O)[C@@H](C)O)C(C)C)C(=O)N[C@@H](CCCCNC(=O)CC[C@H](NC(=O)COCCOCCNC(=O)CC[C@H](NC(=O)COCCOCCNC(=O)CC[C@H](NC(=O)COCCOCCNC(=O)CC[C@H](NC(=O)CC[C@H](NC(=O)CCCCCCCCCCCCCCCCC(=O)O)C(=O)O)C(=O)O)C(=O)O)C(=O)O)C(=O)O)C(=O)N[C@H](C(N)=O)[C@@H](C)O [Chem. 37, N^28-[(4S)-4-carboxy-4-[[2-[2-[2-[[(4S)-4-carboxy-4-[[2-[2-[2-[[(4S)-4-carboxy-4-[[2-[2-[2-[[(4S)-4-carboxy-4-[[(4S)-4-carboxy-4-(17-carboxyheptadecanoylamino)butanoyl]amino]butanoyl]amino]ethoxy]ethoxy]acetyl]amino]butanoyl]amino]ethoxy]ethoxy]acetyl]amino]butanoyl]amino]ethoxy]ethoxy]acetyl]amino]butanoyl]-[Aib2,Arg12,Glu15,Arg20,Ile27,Lys28]-Glucagon amide] (H-H[Aib]QGTFTSDYSRYLESRRARDFVQWLIK([γGlu-AEEA-γGlu-AEEA-γGlu-AEEA-γGlu-γGlu-C18 diacid])T-NH2; N-terminus assumed) | 1.5 |

From patent publication US10570184B2, “GLP-1/glucagon receptor co-agonists for medical use” (Novo Nordisk A/S, priority 2014, dated 2020)
